Measurements as given in patent publication US4031094A, “N-meta-trifluoromethylpiperazines” (Synthelabo, priority 1972, dated 1977).
Where a name gives a salt, the structure may show the parent alone.

How the values were obtained:
rat = assay: anorexigenic effects in the rat trained to satisfy its alimentary needs in a period of 5 hours each 24 hours; format: in vivo; settings: oral, read-out: Anorexia ED 50
Experimental: 1. a study of the anorexigenic effects in the rat trained to satisfy its alimentary needs in a period of 5 hours each 24 hours;
(§1) In every case, the compounds under test were administered orally. The results obtained are given in the table below which also gives the LD 50's (and their 95% confidence limits) of the compounds studied determined intravenously and orally.

mice = assay: motor activity in mice in the hour following administration; format: in vivo; settings: 5 mg/kg, oral
Experimental: 2. the motor activity in mice in the hour following administration of the compound under test;
as §1

[1] = electric "battle test" (Tedeschi & al); format: in vivo; settings: oral; read-out: Electric Battle Test ED 50
Experimental: 3. the electric "battle test" (Tedeschi & al, J. Pharmacol., 1959, 125, pages […]); and
as §1

LD 50 intravenously = settings: in vivo; intravenous; 95% confidence limits in parentheses
Experimental: as §1

LD 50 orally = settings: in vivo; oral; 95% confidence limits in parentheses
Experimental: as §1

[2] = known properties of comparison compounds; cited from earlier work
[3] = overall comparison of therapeutic index, activity and toxicity; format: in vivo; settings: compared with compounds II and III
Experimental: The compounds of formula IA and their salts have interesting pharmacological properties which make them of therapeutic interest.
as §1

SMILES | solubility in water (solubility) | ED50 (rat) | Motor Activity (mice) | ED50 [1] | LD50 (LD 50 intravenously) | LD50 (LD 50 orally) | known pharmacological properties [2] | solubility in organic solvents (solubility; most usual organic solvents) | activity, overall [3] | therapeutic index [3] | toxicity [3]
COC(=O)CCN1CCN(c2cccc(SC(F)(F)F)c2)CC1 [Example 5, N-(β-methoxycarbonyl-ethyl)-N'-(m-trifluoromethylthiophenyl)-piperazine hydrochloride] | soluble in water | – | – | – | – | – | – | – | – | – | –
FC(F)(F)Sc1cccc(N2CCNCC2)c1 [III, N-(m-trifluoromethylthiophenyl)-piperazine] | soluble in water | 15 mg/kg | 0% | 15 mg/kg | 90 mg/kg | 210 mg/kg | known to possess anorexigenic properties | soluble in water and in most usual organic solvents | – | – | –
Cl.N#CCCN1CCN(c2cccc(SC(F)(F)F)c2)CC1 [IA, N-(β-cyano-ethyl)-N'-(m-trifluoromethylthiophenyl)-piperazine hydrochloride] | soluble in water | 11 mg/kg | 0% | 8 mg/kg | 180 mg/kg | 335 mg/kg | – | – | higher activity | better therapeutic index than compounds II and III | lower toxicity
FC(F)(F)c1cccc(N2CCNCC2)c1 [Compound II, N-(m-trifluoromethylphenyl)-piperazine, reference compound] | – | 25 mg/kg | – | 15 mg/kg | 80 mg/kg | 200 mg/kg | known to possess anorexigenic and anxiolytic properties | – | – | – | –
